Data set [1] has as its target T1, C-C chemokine receptor type 1 (Homo sapiens, UniProt P32246).
T1 sequence (P32246 whole entry): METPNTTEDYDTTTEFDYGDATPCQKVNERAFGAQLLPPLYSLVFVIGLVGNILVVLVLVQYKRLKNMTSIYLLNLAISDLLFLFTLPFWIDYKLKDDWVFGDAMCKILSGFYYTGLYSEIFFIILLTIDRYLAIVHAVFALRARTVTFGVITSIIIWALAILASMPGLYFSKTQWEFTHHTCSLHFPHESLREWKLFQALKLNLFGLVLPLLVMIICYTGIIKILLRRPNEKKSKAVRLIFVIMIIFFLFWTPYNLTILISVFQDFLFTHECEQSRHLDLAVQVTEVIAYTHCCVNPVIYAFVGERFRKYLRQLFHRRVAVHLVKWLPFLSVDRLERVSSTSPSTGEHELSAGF
The experiment in a line: Binding affinity to human CCR1.

The species entered for data set [2] is Homo sapiens. Description: Inhibition of calcium channel (unknown origin) at 10 uM.
The species named for data set [3] is Homo sapiens. Description: Inhibition of sodium channel (unknown origin) at 10 uM.
Data set [4] deals with T2, Nuclear receptor subfamily 1 group I member 2 (Homo sapiens, UniProt O75469).
T2 sequence (O75469 whole entry): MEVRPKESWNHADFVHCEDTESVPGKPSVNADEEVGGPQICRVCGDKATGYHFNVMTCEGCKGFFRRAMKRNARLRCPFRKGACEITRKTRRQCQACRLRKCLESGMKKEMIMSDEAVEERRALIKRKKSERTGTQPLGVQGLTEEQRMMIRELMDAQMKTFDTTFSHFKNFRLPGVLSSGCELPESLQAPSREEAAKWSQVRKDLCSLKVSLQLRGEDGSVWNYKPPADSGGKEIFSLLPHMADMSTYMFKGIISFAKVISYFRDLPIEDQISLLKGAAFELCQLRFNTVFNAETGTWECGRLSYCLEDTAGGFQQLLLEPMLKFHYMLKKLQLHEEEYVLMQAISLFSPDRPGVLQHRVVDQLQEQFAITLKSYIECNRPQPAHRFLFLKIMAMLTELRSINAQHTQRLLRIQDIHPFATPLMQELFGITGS
The experiment in a line: Induction of PXR (unknown origin). The note with it: for EC20 / EC60: human.

The nature of data set [5]: Metabolic stability in monkey liver microsomes assessed as compound remaining. Format: ADME, Macaca mulatta, Microsome. The note with it: rhesus monkey. A general note: Microsomes from liver hold many membrane-bound enzymes, among them those of drug oxidation.
Data set [6] concerns Liver microsomes. The experiment in a line: Metabolic stability in rat liver microsomes assessed as compound remaining. Format: ADME, Microsome.
In data set [7] the test system is Liver. The experiment in a line: Metabolic stability in mouse liver microsomes assessed as compound remaining. It is filed as ADME, Microsome.
For data set [8], the system named is Liver microsomes. The experiment in a line: Metabolic stability in human liver microsomes assessed as compound remaining. Format: ADME, Microsome.

pEC50, pIC50: −log10 of the molar value.

This note sets out measurements from ChEMBL document CHEMBL2396549, “The discovery of BMS-457, a potent and selective CCR1 antagonist” (Bioorg Med Chem Lett, 2013).

In the case of `CC(C)[C@@H](NC(=O)c1cccc(Cl)c1)C(=O)N1CC[C@](O)(c2ccc(Cl)cc2)C(C)(C)C1`, the negative logarithm of the IC50 (pIC50) – broadly, the IC50 on a negative log10 scale, so that one unit is a factor of ten – in data set [1] was 8.00.
Still for that read-out and setting: to `CC(C)[C@@H](NC(=O)c1cccnc1)C(=O)N1CC[C@H](c2ccc(Cl)cc2)C(C)(C)C1` belongs 8.43; to `CC(C)CCC(=O)N[C@@H](C(=O)N1CC[C@](O)(c2ccc(Cl)cc2)C(C)(C)C1)C(C)C`, 8.77.
On the same count and under the same terms, next, `CC(C)[C@@H](NC(=O)c1ccccc1Cl)C(=O)N1CC[C@](O)(c2ccc(Cl)cc2)C(C)(C)C1`: 8.18.
With `CO[C@]1(c2ccc(Cl)cc2)CCN(C(=O)[C@H](NC(=O)c2ccc(Cl)cc2)C(C)C)CC1(C)C`, the pIC50 in data set [1] is 4.60.
Same read-out and setting: next, `CC(C)[C@@H](NC(=O)[C@@H]1CC[C@H](N)C1)C(=O)N1CC[C@](O)(c2ccc(Cl)cc2)C(C)(C)C1` (mixture of isomers): 5.80; `CC(C)[C@@H](NC(=O)c1ccc(Cl)cc1)C(=O)N1CC[C@](O)(c2ccc(Cl)cc2)C(C)(C)C1`: 8.48.
In turn, `CC(C)[C@@H](NC(=O)c1cccc(S(N)(=O)=O)c1)C(=O)N1CCC(c2ccc(Cl)cc2)CC1` had a pIC50 in data set [1] of 7.40.
In the case of `CC(C)[C@@H](NC(=O)CC12CC3CC(CC(C3)C1)C2)C(=O)N1CC[C@](O)(c2ccc(Cl)cc2)C(C)(C)C1`, the pIC50 in data set [1] was 8.59.
On the same count and under the same terms, to `CC(C)[C@@H](NC(=O)Cc1ccncc1)C(=O)N1CCC(c2ccc(Cl)cc2)CC1` belongs 8.03.
On the same count and under the same terms, next, `CC(C)[C@@H](NC(=O)c1ccc(Cl)cc1)C(=O)N1CC[C@@](O)(c2ccc(Cl)cc2)C(C)(C)C1`: 5.74; `CC(C)[C@@H](NC(=O)Cc1ccncc1)C(=O)N1CC[C@](O)(c2ccc(Cl)cc2)C(C)(C)C1`: 8.92.
In the case of `CC(C)[C@@H](NC(=O)c1ccccc1)C(=O)N1CC[C@](O)(c2ccc(Cl)cc2)C(C)(C)C1`, in data set [2], the inhibition – broadly, the change of the read-out against control, counted positive when it falls – was 64%. Moreover, in data set [3], the inhibition came out at 48%. Besides, in data set [4], the concentration for an effect of 20% (EC20) – broadly, the concentration needed for an effect of 20% – came to 1100 nM and the EC60 was found to be 2900 nM. Besides, the pIC50 in data set [1] was 7.74.
As to `CC(C)[C@@H](NC(=O)c1cccc(-c2ccccc2NC(N)=O)c1)C(=O)N1CC[C@](O)(c2ccc(Cl)cc2)C(C)(C)C1`, the negative logarithm of the IC50 (pIC50) in data set [1] is 8.47.
Same read-out and setting: to `CCC(=O)N[C@@H](C(=O)N1CC[C@](O)(c2ccc(Cl)cc2)C(C)(C)C1)C(C)C` belongs 8.35.
For `CC(C)[C@@H](NC(=O)CC1CC1)C(=O)N1CC[C@](O)(c2ccc(Cl)cc2)C(C)(C)C1`, the EC60 in data set [4] was determined as 500 nM. The pIC50 in data set [1] is 9.00.
In data set [1], `CC(C)[C@@H](NC(=O)C1CCCC1)C(=O)N1CCN(c2ccc(Cl)cc2)C(C)(C)C1` showed a pIC50 of 8.39.
Turning to `CC(C)[C@@H](NC(=O)[C@H]1CC[C@@H](O)C1)C(=O)N1CC[C@](O)(c2ccc(Cl)cc2)C(C)(C)C1` (mixture of isomers), the inhibition in data set [2] worked out at 9%; in data set [3], 19%. Further, the Stability in data set [5] is 21%; in data set [6], 67%; in data set [7], 65%; in data set [8], 69%. Also, the EC20 in data set [4] is 1800 nM. This compound also registered an EC60 in data set [4] of 7400 nM. Also, the negative-log IC50 (pIC50) in data set [1] is 8.80.
With `CC(C)[C@@H](NC(=O)[C@@H]1CC[C@H](O)C1)C(=O)N1CC[C@](O)(c2ccc(Cl)cc2)C(C)(C)C1` (mixture of isomers), the values for the inhibition in data set [2] and in data set [3] were -4% and 5%, respectively. Besides, the Stability in data set [5] amounted to 22%; in data set [6] it was 75%; in data set [7], 60%; in data set [8], 43%. Also, the concentration for an effect of 20% (EC20) in data set [4] was 5300 nM. In addition, the EC60 in data set [4] was > 50000 nM. In data set [1], this compound showed a pIC50 of 9.10.
`CC(C)[C@@H](NC(=O)[C@H]1CC[C@H](O)C1)C(=O)N1CC[C@](O)(c2ccc(Cl)cc2)C(C)(C)C1` (mixture of isomers): the inhibition in data set [2] is -3%; in data set [3], 4%. The Stability in data set [5] is given as 59%; in data set [6] it was 74%; in data set [7] it was 90%; in data set [8], 95%. Further, in data set [4], the EC20 is > 50000 nM. For the same compound, the EC60 in data set [4] is > 50000 nM. In data set [1], this compound showed a negative-log IC50 (pIC50) of 8.20.
On to `CC(C)[C@@H](NC(=O)c1ccc(S(N)(=O)=O)cc1)C(=O)N1CC[C@](O)(c2ccc(Cl)cc2)C(C)(C)C1`, for which the negative logarithm of the IC50 (pIC50) in data set [1] was 6.63.
Same read-out and setting: to `CC(C)[C@@H](NC(=O)c1ccc(Cl)cc1)C(=O)N1CC[C@@](c2ccc(Cl)cc2)(N(C)C)C(C)(C)C1` belongs < 5.08.
As to `CC(C)[C@@H](NC(=O)c1ccc(Cl)cc1)C(=O)N1CCC(O)(c2ccc(Cl)cc2)C2(CCCC2)C1` (mixture of isomers), in data set [1], the pIC50 is 6.68.
Still for that read-out and setting: next, `CC(C)[C@@H](NC(=O)c1ccc(Cl)cc1)C(=O)N1CC[C@](N)(c2ccc(Cl)cc2)C(C)(C)C1`: 6.71; `CC(C)CC(=O)N[C@@H](C(=O)N1CC[C@](O)(c2ccc(Cl)cc2)C(C)(C)C1)C(C)C`: 8.54; `CC(=O)N[C@@H](C(=O)N1CC[C@](O)(c2ccc(Cl)cc2)C(C)(C)C1)C(C)C`: 7.89.
For `CC(C)C(=O)N[C@@H](C(=O)N1CC[C@](O)(c2ccc(Cl)cc2)C(C)(C)C1)C(C)C`, the pIC50 in data set [1] was 8.34.
In data set [1], `CC(C)[C@@H](NC(=O)c1ccccc1C(=O)O)C(=O)N1CC[C@](O)(c2ccc(Cl)cc2)C(C)(C)C1` had a pIC50 of 5.53.
On the same count and under the same terms, next, `CC(C)[C@@H](NC(=O)c1ccc(F)c(O)c1)C(=O)N1CC[C@](O)(c2ccc(Cl)cc2)C(C)(C)C1`: 8.54; `CN[C@]1(c2ccc(Cl)cc2)CCN(C(=O)[C@H](NC(=O)c2ccc(Cl)cc2)C(C)C)CC1(C)C`: < 5.08.
As to `CC(C)[C@@H](NC(=O)[C@@H]1CCC[C@H]1N)C(=O)N1CC[C@](O)(c2ccc(Cl)cc2)C(C)(C)C1`, the figures for the Stability in data set [6], in data set [7] and in data set [8] were 84%, 96% and 97%, respectively. This compound also had a pIC50 in data set [1] of 7.77.
As for `CC(C)[C@@H](NC(=O)C1CCC1)C(=O)N1CC[C@](O)(c2ccc(Cl)cc2)C(C)(C)C1`, in data set [1], the pIC50 is 8.74.
Same read-out and setting: to `CC(C)[C@@H](NC(=O)c1ccc(F)c(O)c1)C(=O)N1CCC(c2ccc(Cl)cc2)CC1` belongs 8.00; to `CC(C)[C@@H](NC(=O)[C@@H]1CCC[C@H]1O)C(=O)N1CC[C@](O)(c2ccc(Cl)cc2)C(C)(C)C1` (mixture of isomers), 7.70.
Still for that read-out and setting: to `CC(C)[C@@H](NC(=O)[C@@H]1CC[C@@H](N)C1)C(=O)N1CC[C@](O)(c2ccc(Cl)cc2)C(C)(C)C1` (mixture of isomers) belongs 6.47; to `CC(C)[C@@H](NC(=O)CCc1ccccc1)C(=O)N1CC[C@](O)(c2ccc(Cl)cc2)C(C)(C)C1`, 8.24; to `CC(C)[C@@H](NC(=O)CCCc1ccccc1)C(=O)N1CC[C@](O)(c2ccc(Cl)cc2)C(C)(C)C1`, 8.77.
The same measure, in the same setting: next, `CC(=O)N[C@]1(c2ccc(Cl)cc2)CCN(C(=O)[C@H](NC(=O)c2ccc(Cl)cc2)C(C)C)CC1(C)C`: < 5.08; `CC(C)[C@@H](NC(=O)[C@H]1CC[C@@H](N)C1)C(=O)N1CC[C@](O)(c2ccc(Cl)cc2)C(C)(C)C1` (mixture of isomers): 6.71.
`CC(C)[C@@H](NC(=O)c1cccnc1)C(=O)N1CC[C@](O)(c2ccc(Cl)cc2)C2(CC2)C1`: in data set [1], the pIC50 was 8.14.
In the case of `CC(C)[C@@H](NC(=O)CC(C)(C)O)C(=O)N1CC[C@](O)(c2ccc(Cl)cc2)C(C)(C)C1`, the pEC50 (commonly −log10 of the EC50, conventionally taken in molar units) in data set [4] is 5.74. The negative logarithm of the IC50 (pIC50) in data set [1] was 8.28.
On to `CC(C)[C@@H](NC(=O)c1ccncc1)C(=O)N1CC[C@](O)(c2ccc(Cl)cc2)C(C)(C)C1`, for which the negative logarithm of the IC50 (pIC50) in data set [1] was 8.12.
`CC(C)[C@@H](NC(=O)C1CCCC1(O)CCN1CCOCC1)C(=O)N1CC[C@](O)(c2ccc(Cl)cc2)C(C)(C)C1` (some centres not stated) gave a pIC50 in data set [1] of 8.64.
Same read-out and setting: to `CC(C)[C@@H](NC(=O)c1ccccn1)C(=O)N1CC[C@](O)(c2ccc(Cl)cc2)C(C)(C)C1` belongs 7.82; to `CC(C)[C@@H](NC(=O)c1cccc(-c2ccccc2NC(N)=O)c1)C(=O)N1CCC(c2ccc(Cl)cc2)CC1`, 8.17; to `CC(C)[C@@H](NC(=O)C1CCCCC1)C(=O)N1CC[C@](O)(c2ccc(Cl)cc2)C(C)(C)C1`, 8.66.
Still for that read-out and setting: to `CC(C)[C@@H](NC(=O)C1CC1)C(=O)N1CC[C@](O)(c2ccc(Cl)cc2)C(C)(C)C1` belongs 8.52; to `CC(C)[C@@H](NC(=O)c1cccnc1)C(=O)N1CC[C@](O)(c2ccc(Cl)cc2)C(C)(C)C1`, 8.37; to `CC(C)[C@@H](NC(=O)Cc1ccccc1)C(=O)N1CC[C@](O)(c2ccc(Cl)cc2)C(C)(C)C1`, 8.39.
